Data on 29 molecules can be found in patent US20140128385A1 (NOVARTIS AG, priority 2011, published 2014).

Each structure is given as a SMILES string. Where a name gives a salt, the structure may show the parent alone.

The target in this experiment is T1, BACE-2 (Homo sapiens, UniProt Q9Y5Z0).
T1 construct: Recombinant BACE-2 (extracellular domain, expressed in baculovirus and purified using standard methods); made in house
T1 sequence (Q9Y5Z0 63-473 limits assumed): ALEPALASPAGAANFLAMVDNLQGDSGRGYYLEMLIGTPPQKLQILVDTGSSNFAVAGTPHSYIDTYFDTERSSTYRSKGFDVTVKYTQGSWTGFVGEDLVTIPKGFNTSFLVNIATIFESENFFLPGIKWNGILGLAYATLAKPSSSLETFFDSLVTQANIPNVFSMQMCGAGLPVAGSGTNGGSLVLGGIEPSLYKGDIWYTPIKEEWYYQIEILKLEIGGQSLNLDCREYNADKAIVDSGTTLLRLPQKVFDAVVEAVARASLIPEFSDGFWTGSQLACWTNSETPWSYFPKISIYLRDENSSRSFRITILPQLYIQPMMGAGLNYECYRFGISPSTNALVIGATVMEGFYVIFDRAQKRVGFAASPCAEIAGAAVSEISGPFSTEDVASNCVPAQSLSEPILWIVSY
The experiment in a line: assay for inhibition of BACE-2. The format is biochemical.
`NC1=N[C@@](c2cc(NC(=O)c3ncc(C(F)F)nc3N)ccc2F)(C(F)F)COC1` [Example 220] gave an IC50 of 116 nM.
Turning to `COc1cnc(C(=O)Nc2ccc(F)c([C@]3(C(F)F)COCC(N)=N3)c2)c(C)c1` [Example 221], the IC50 was determined as 65 nM.
Consider `Cc1cc(C(F)F)cnc1C(=O)Nc1ccc(F)c([C@]2(C(F)F)COCC(N)=N2)c1` [Example 222], for which half-maximal inhibition (IC50) required 52 nM.
The value for `[2H]C([2H])([2H])OCc1cc(F)cnc1C(=O)Nc1ccc(F)c([C@]2(C(F)F)COCC(N)=N2)c1` [Example 223] was 59 nM; that for `[2H]C([2H])([2H])OCc1cc(OC([2H])([2H])[2H])cnc1C(=O)Nc1ccc(F)c([C@]2(C(F)F)COCC(N)=N2)c1` [Example 224] was 103 nM.
`N#Cc1cnc(C(=O)Nc2ccc(F)c([C@]3(C(F)F)COCC(N)=N3)c2)c(N)c1` [Example 225] had an IC50 of 27 nM.
`NC1=N[C@@](c2cc(NC(=O)c3ncc(C(F)F)cc3N)ccc2F)(C(F)F)COC1` [Example 226] showed an IC50 of 90 nM.
With `[2H]C([2H])([2H])Oc1cnc(C(=O)Nc2ccc(F)c([C@]3(C(F)F)COCC(N)=N3)c2)c(C)c1` [Example 227], it took 64 nM to reach half-maximal inhibition (IC50).
`Cc1cc(C#N)cnc1C(=O)Nc1cc(F)c(F)c([C@]2(C(F)F)COCC(N)=N2)c1` [Example 228, 5-Cyano-3-methyl-pyridine-2-carboxylic acid [3-((R)-5-amino-3-difluoromethyl-3,6-dihydro-2H-[1,4]oxazin-3-yl)-4,5-difluoro-phenyl]-amide] showed an IC50 of 61 nM.
Regarding `[2H]C([2H])([2H])Oc1cnc(C(=O)Nc2cc(F)c(F)c([C@]3(C(F)F)COCC(N)=N3)c2)c(Cl)c1` [Example 229, 3-Chloro-5-trideuteromethoxy-pyridine-2-carboxylic acid [3-((R)-5-amino-3-difluoromethyl-3,6-dihydro-2H-[1,4]oxazin-3-yl)-4,5-difluoro-phenyl]-amide], inhibition was half-maximal at 73 nM (IC50).
The value for `[2H]c1nc(C(=O)Nc2cc(F)c(F)c([C@]3(C(F)F)COCC(N)=N3)c2)c(C([2H])([2H])[2H])c([2H])c1Cl` [Example 230, 4,6-Dideutero-5-chloro-3-trideuteromethyl-pyridine-2-carboxylic acid [3-((R)-5-amino-3-difluoromethyl-3,6-dihydro-2H-[1,4]oxazin-3-yl)-4,5-difluoro-phenyl]-amide] was 8 nM; that for `C[C@@]1(c2cc(NC(=O)c3ncc(C#N)cc3Cl)ccc2F)CO[C@@](C)(C(F)(F)F)C(N)=N1` [Example 231, 3-Chloro-5-cyano-pyridine-2-carboxylic acid [3-((3R,6R)-5-amino-3,6-dimethyl-6-trifluoromethyl-3,6-dihydro-2H-[1,4]oxazin-3-yl)-4-fluoro-phenyl]-amide hydrochloride] was 6 nM.
Take `COc1cnc(C(=O)Nc2ccc(F)c([C@]3(C)CO[C@@](C)(C(F)(F)F)C(N)=N3)c2)c(Cl)c1` [Example 232, 3-Chloro-5-methoxy-pyridine-2-carboxylic acid [3-((3R,6R)-5-amino-3,6-dimethyl-6-trifluoromethyl-3,6-dihydro-2H-[1,4]oxazin-3-yl)-4-fluoro-phenyl]-amide hydrochloride]: the IC50 was 7 nM.
`Cc1cc(Cl)cnc1C(=O)Nc1ccc(F)c([C@]2(C)CO[C@@](C)(C(F)(F)F)C(N)=N2)c1` [Example 234, 5-Chloro-3-methyl-pyridine-2-carboxylic acid [3-((3R,6R)-5-amino-3,6-dimethyl-6-trifluoromethyl-3,6-dihydro-2H-[1,4]oxazin-3-yl)-4-fluoro-phenyl]-amide hydrochloride] displayed an IC50 of 2 nM.
Take `C[C@@]1(c2cc(NC(=O)c3ncc(Cl)cc3F)ccc2F)CO[C@@](C)(C(F)(F)F)C(N)=N1` [Example 235, 5-Chloro-3-fluoro-pyridine-2-carboxylic acid [3-((3R,6R)-5-amino-3,6-dimethyl-6-trifluoromethyl-3,6-dihydro-2H-[1,4]oxazin-3-yl)-4-fluoro-phenyl]-amide hydrochloride]: it took 2 nM to reach half-maximal inhibition (IC50).
The same measure for `Cl.[2H]C([2H])([2H])Oc1cnc(C(=O)Nc2ccc(F)c([C@]3(C)CO[C@@](C)(C(F)(F)F)C(N)=N3)c2)c(Cl)c1` [Example 236, 3-Chloro-5-trideutero-methoxy-pyridine-2-carboxylic acid [3-((3R,6R)-5-amino-3,6-dimethyl-6-trifluoromethyl-3,6-dihydro-2H-[1,4]oxazin-3-yl)-4-fluoro-phenyl]-amide hydrochloride]: 6 nM.
Regarding `Cc1nc(C(=O)Nc2ccc(F)c([C@]3(C)CO[C@@](C)(C(F)(F)F)C(N)=N3)c2)c(C)o1` [Example 237, 2,5-Dimethyl-oxazole-4-carboxylic acid [3-((3R,6R)-5-amino-3,6-dimethyl-6-trifluoromethyl-3,6-dihydro-2H-[1,4]oxazin-3-yl)-4-fluoro-phenyl]-amide hydrochloride], the IC50 was found to be 7 nM.
The molecule `Cc1cc(OC(F)F)cnc1C(=O)Nc1ccc(F)c([C@]2(C)CO[C@@](C)(C(F)(F)F)C(N)=N2)c1` [Example 238] showed an IC50 of 12 nM.
As for `C#CCOc1cnc(C(=O)Nc2ccc(F)c([C@]3(C)CO[C@@](C)(C(F)(F)F)C(N)=N3)c2)c(N)n1` [Example 239], the IC50 was 15 nM.
The molecule `Cc1cc(C(F)F)cnc1C(=O)Nc1ccc(F)c([C@]2(C)CO[C@@](C)(C(F)(F)F)C(N)=N2)c1` [Example 241, 5-Difluoromethyl-3-methyl-pyridine-2-carboxylic acid [3-((3R,6R)-5-amino-3,6-dimethyl-6-trifluoromethyl-3,6-dihydro-2H-[1,4]oxazin-3-yl)-4-fluoro-phenyl]-amide hydrochloride] had a half-inhibitory concentration (IC50) of 8 nM.
Molecule `C[C@@]1(c2cc(NC(=O)c3ncc(C(F)F)nc3N)ccc2F)CO[C@@](C)(C(F)(F)F)C(N)=N1` [Example 242, 3-Amino-5-difluoromethyl-pyrazine-2-carboxylic acid [3-((3R,6R)-5-amino-3,6-dimethyl-6-trifluoromethyl-3,6-dihydro-2H-[1,4]oxazin-3-yl)-4-fluoro-phenyl]-amide] gave an IC50 of 11 nM.
Molecule `C[C@@]1(c2cc(NC(=O)c3ncc(C(F)F)cc3N)ccc2F)CO[C@@](C)(C(F)(F)F)C(N)=N1` [Example 243, 3-Amino-5-difluoromethyl-pyridine-2-carboxylic acid [3-((3R,6R)-5-amino-3,6-dimethyl-6-trifluoromethyl-3,6-dihydro-2H-[1,4]oxazin-3-yl)-4-fluoro-phenyl]-amide] yielded an IC50 of 11 nM.
Turning to `COc1cc(C(F)F)c(C(=O)Nc2ccc(F)c([C@]3(C)CO[C@@](C)(C(F)(F)F)C(N)=N3)c2)nn1` [Example 244, 4-Difluoromethyl-6-methoxy-pyridazine-3-carboxylic acid [3-((3R,6R)-5-amino-3,6-dimethyl-6-trifluoromethyl-3,6-dihydro-2H-[1,4]oxazin-3-yl)-4-fluoro-phenyl]-amide hydrochloride], 9 nM corresponded to half-maximal inhibition (IC50).
As to `[2H]C([2H])([2H])OCc1cc(C#N)cnc1C(=O)Nc1ccc(F)c([C@]2(C)CO[C@@](C)(C(F)(F)F)C(N)=N2)c1` [Example 245, 5-Cyano-3-trideuteromethoxymethyl-pyridine-2-carboxylic acid [3-((3R,6R)-5-amino-3,6-dimethyl-6-trifluoromethyl-3,6-dihydro-2H-[1,4]oxazin-3-yl)-4-fluoro-phenyl]-amide], inhibition was half-maximal at 13 nM (IC50).
As to `C[C@@]1(c2cc(NC(=O)c3ncc(C(F)F)cc3Cl)ccc2F)CO[C@@](C)(C(F)(F)F)C(N)=N1` [Example 246, 3-Chloro-5-difluormethyl-pyridine-2-carboxylic acid [3-((3R,6R)-5-amino-3,6-dimethyl-6-trifluoromethyl-3,6-dihydro-2H-[1,4]oxazin-3-yl)-4-fluoro-phenyl]-amide-amide], half-maximal inhibition (IC50) was put at 8 nM.
For `[2H]C([2H])([2H])OC([2H])([2H])c1cc2c(Cl)c[nH]c2nc1C(=O)Nc1ccc(F)c([C@]2(C)CO[C@@](C)(C(F)(F)F)C(N)=N2)c1` [Example 247, 3-Chloro-5-trideuteromethoxy-dideuteromethyl-1H-pyrrolo[2,3-b]pyridine-6-carboxylic acid [3-((3R,6R)-5-amino-3,6-dimethyl-6-trifluoromethyl-3,6-dihydro-2H-[1,4]oxazin-3-yl)-4-fluoro-phenyl]-amide], the IC50 came out at 44 nM.
The same measure for `C[C@@]1(c2cc(NC(=O)c3ncc(C(F)(F)F)cc3Cl)ccc2F)CO[C@@](C)(C(F)(F)F)C(N)=N1` [Example 248, 3-Chloro-5-trifluoromethyl-pyridine-2-carboxylic acid [3-((3R,6R)-5-amino-3,6-dimethyl-6-trifluoromethyl-3,6-dihydro-2H-[1,4]oxazin-3-yl)-4-fluoro-phenyl]-amide]: 22 nM; for `Cc1cc(F)cnc1C(=O)Nc1ccc(F)c([C@]2(C)CO[C@@](C)(C(F)(F)F)C(N)=N2)c1` [Example 249, 5-Fluoro-3-methyl-pyridine-2-carboxylic acid [3-((3R,6R)-5-amino-3,6-dimethyl-6-trifluoro-methyl-3,6-dihydro-2H-[1,4]oxazin-3-yl)-4-fluoro-phenyl]-amide]: 3 nM.
The molecule `Cc1cc(OC(F)F)cnc1C(=O)Nc1ccc(F)c(C2(C)COC(CF)(CF)C(N)=N2)c1` (centres unmarked) [Example 253, 5-Difluoromethoxy-3-methyl-pyridine-2-carboxylic acid [3-(5-amino-6,6-bis-fluoromethyl-3-methyl-3,6-dihydro-2H-[1,4]oxazin-3-yl)-4-fluoro-phenyl]-amide] displayed an IC50 of 426 nM.

One may read the IC50 as the concentration that gives 50% inhibition. A lower IC50 goes with greater potency in that assay.
